Data: paper PMC2970562, “High-Affinity Inhibitors of Human NAD^+-Dependent 15-Hydroxyprostaglandin Dehydrogenase: Mechanisms of Inhibition and Structure-Activity Relationships” (PLoS ONE, 2010)
Like-named read-outs stand apart in the source and are kept apart here.

Legend:
[1] = target: T1, human 15-PGDH (Homo sapiens, UniProt P15428); test: qHTS and 24-point re-test: fluorescence assay of NAD+ reduction to NADH on PGE2 oxidation (PubChem AID 894); type: biochemical
T1 construct: comprising residues 3–256 of the human HPGD gene (GenBank identifier: 1203982); His6 (GHHHHHH, behind the TEV site) (C, cleaved yes); made in house; host or cells: E. coli BL21(DE3)-R3
T1 sequence (P15428 3-256): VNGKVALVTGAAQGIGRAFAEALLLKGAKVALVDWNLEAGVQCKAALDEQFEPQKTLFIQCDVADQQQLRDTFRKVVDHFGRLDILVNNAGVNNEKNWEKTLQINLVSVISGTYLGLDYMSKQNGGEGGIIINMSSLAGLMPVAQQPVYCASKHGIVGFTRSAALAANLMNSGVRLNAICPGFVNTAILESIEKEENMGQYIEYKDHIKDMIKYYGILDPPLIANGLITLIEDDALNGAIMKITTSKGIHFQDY
Method: The assay was miniaturized to a 4-µL volume in 1536-well format: enzyme (3 µL) was dispensed first, followed by a pintool transfer of library compounds dissolved in DMSO. After equilibration, a substrate dispense (1 µL) initiated the enzymatic reaction (see Materials and Methods, for detailed protocol description). […] Hits associated with low-efficacy (<40% maximum inhibition), incomplete curves, as well as those displaying only a single-point inhibition at the top concentration tested were eliminated from further consideration. Similarly, the collection of real-time kinetic data allowed the autofluorescence of each compound to be evaluated by comparing the initial fluorescence read at top concentration with the mean value of uninhibited assay controls: compounds whose top-concentration initial well fluorescence exceeded six standard deviations over the mean were flagged as potential autofluorescent artifacts, [28] (see example in supplementary information Figure S1E). The complete screening and followup results are available in PubChem (PubChem Assay ID 894).
The enzymatic reaction was performed in 50 mM Tris-HCl pH 8.0, containing 0.01% Tween 20. […] The high-throughput screen was performed on a fully integrated robotic system (Kalypsys Inc, San Diego, CA) as described elsewhere. Library compounds, arrayed as seven-point inter-plate concentration series, were screened from the lowest (3.5 nM) to the highest (57.5 µM) concentration, with plates containing DMSO only, serving to note any systematic drifts in the signal, interspersed evenly throughout the screen (approximately every 50 plates). Briefly, 3 µL of reagents were dispensed into 1536-well Greiner black solid-bottom assay plates using integrated nanoliter solenoid-technology dispensers. Compounds and controls (23 nL) were transferred via Kalypsys pintool equipped with 1,536-pin array (10-nL slotted pins; V&P Scientific, Palo Alto, CA). After a 15-minute incubation (to allow for interaction between compound and enzyme), a 1-µL substrate addition step initiated the reaction. Kinetic data were collected on a ViewLux High-throughput CCD imager (Perkin-Elmer) equipped with standard UV fluorescence optics (exc. 340 nm, em. 450 nm).
Starting fluorescence intensity and the change in fluorescence over the two-minute initial rate period were recorded for every well. Screening data were normalized against no-enzyme (64 wells, columns 3 and 4) and no-compound (32 wells located in column 1) controls, and concentration-response relationships were derived as described previously. A four-parameter Hill equation [47] was fitted to the concentration-response data using publicly available algorithms (http://www.ncgc.nih.gov/pub/openhts/curvefit/).

[2] = target: T1, human 15-PGDH; test: Differential scanning fluorimetry (DSF), thermal stabilization; type: binding; details: for increase of stability by cofactor: versus ligand-free 15-PGDH
Method: A correlation between the ΔTm and the inhibitory potency has been shown in a number of protein-ligand systems, particularly for kinases [32]–[34].
Studies to assess the thermal stability of human 15-PGDH in presence of compounds were performed as described previously, with variations. Briefly, the protein was diluted to a final assay concentration of 1 µM in 100 mM Tris buffer pH 8.0, containing 0.01% Tween-20 and 1∶1000 SYPRO orange dye (Invitrogen). […] Compounds were added at a ratio of 1∶5 from appropriate stock solutions in 10% (v/v) DMSO to comprise either 50 or 250 µM final concentrations. Heat denaturation curves were recorded using a RT-PCR instrument (Mx3005p, Agilent) applying a temperature gradient of 2°C/min. […] 2.5 (ftp://ftp.sgc.ox.ac.uk/pub/biophysics) and PRISM 5.0 (GraphPad Software, Inc.).

[3] = target: T1, human 15-PGDH; test: Substrate (PGE2) and cofactor (NAD+) titrations, mechanism of action, global fitting; type: biochemical
Method: Kinetic studies were performed in 100 mM Tris buffer pH 8.0, containing 0.01% Tween-20 and 10 nM 15-PGDH enzyme. […] All inhibitor compounds were dissolved in 10% (v/v) DMSO at varying concentrations from which they were applied at 1∶5 ratio (resulting in a final concentration of 2% (v/v) DMSO in all assays). For each experiment an aliquot of purified enzyme was thawed freshly and pre-diluted to 10 µM in buffer I (5 mM Tris/HCl, pH 8.0, 150 mM NaCl, 0.01% Tween-20). All experiments were performed in white 384-well PCR microplates (Bio-Rad Laboratories, Inc.) in final assay volumes of 20 µL. Twelve-point compound titrations were set up from serially diluted stock solutions in 10% (v/v) DMSO. […] The initial rates recorded in compound titrations were plotted against -log[compound], and non-linear regression (Levenberg-Marquardt) fitting of the dose-response curve to the Hill equation [47] was performed to derive the IC50, using PRISM 5.0 (GraphPad Software, Inc.). For substrate/cofactor titrations, curves with initial rates plotted against the concentration of substrate or cofactor were fitted to the Michaelis-Menten equation, to derive maximal activities, V max, and Michaelis constants, K m. Fitting qualities were judged from the goodness of fit (R^2>0.98).

[4] = potency in 24-point titrations on re-test, 20 nM 15-PGDH, 1 mM NAD+, 30 µM PGE2, pH 8.0, read-out: qHTS IC50
[5] = potency in 24-point titrations on re-test, 20 nM 15-PGDH, 1 mM NAD+, 30 µM PGE2, pH 8.0
[6] = cofactor, absence of inhibitor, 30 µM PGE2
[7] = substrate, absence of inhibitor

Row | Compound | IC50 [1, 4] | further results
1 | NC(=O)C1=CN([C@@H]2O[C@H](COP(=O)(O)OP(=O)(O)OC[C@H]3O[C@@H](n4cnc5c(N)ncnc54)[C@H](O)[C@@H]3O)[C@@H](O)[C@H]2O)C=CC1 [NADH, reference compound] | – | Tm of 15-PGDH in the presence of cofactor ([2]; pH 8.0, ligand-free Tm 41.2±0.3°C): 52.5±0.4 °C; increase of stability by cofactor ([2]; pH 8.0): more than 10 °C
2 | CN1CCCc2cccc(C[S+]([O-])c3ncc[nH]3)c21 (centres unmarked) [Compound 82] | 0.501 µM | –
3 | N#Cc1c(NC(=O)COC(=O)C23CC4CC(CC(C4)C2)C3)sc2c1CCCCC2 [Compound 75] | 2.51 µM | –
4 | COCCNC(=O)C1CSC(c2ccccc2)N1C(=O)c1ccc(OC)c(OC)c1 (centres unmarked) [Compound 28] | – | qHTS IC50 [nM] [1, 5]: inactive
5 | COc1ccc(OC)c(C=Cc2ccc(N3C(=O)C4CC=C5C(c6cc(Br)c(O)c(OC)c6)C6=C(CC5C4C3=O)C(=O)C=C(C)C6=O)cc2)c1 (centres unmarked) [Compound 27] | 15.8 µM | –
6 | NC(=O)c1ccc[n+]([C@@H]2O[C@H](COP(=O)([O-])OP(=O)(O)OC[C@H]3O[C@@H](n4cnc5c(N)ncnc54)[C@H](O)[C@@H]3O)[C@@H](O)[C@H]2O)c1 [NAD^+] | – | increase of stability by cofactor ([2]; pH 8.0): more than 4 °C; Titration of NAD^+ K m [3, 6]: 15.8 ± 0.9 µM; Titration of NAD^+ V max [µmol/(min×mg)] [3, 6]: 21.2 µmol/min/mg; Titration of NAD^+ k cat/K m[×10^6] [3, 6]: 0.7 ×10^6; Titration of NAD^+ k cat[1/sec] [3, 6]: 10.3 ± 0.1 s⁻¹
7 | CC(C)CC=NCCCCCCN=CCC(C)C [Compound 83] | 1.26 µM | –
8 | Cc1ccc2nc(SCC(=O)N3CCCC[C@@H]3C)c(C#N)cc2c1 [Compound 49] | – | qHTS IC50 [nM] [1, 5]: Inactive
9 | COc1cccc(NC(=O)N2CCC3(CC2)C(=O)N(CC(=O)NCc2ccc4c(c2)OCO4)CN3c2ccccc2)c1 [Compound 76] | 0.112 µM | –
10 | COC(=O)CSc1nc2cc(Br)c(C)nc2[nH]1 [Compound 58] | 15.8 µM | –
11 | COc1ccc(N2CCN(C(=O)c3ccc(CSc4ccccc4)cc3)CC2)cc1 [Compound 6] | – | qHTS IC50 [nM] [1, 5]: Inactive; IC50 ([1]; re-test of qHTS hits, Figure 2, read-out: IC50 from re-testing): > 10 µM
12 | CC(=O)Nc1ccc(NC(=O)CSc2nc3c(cc2C#N)CCC3)cc1 [Compound 10] | 0.282 µM | –
13 | O=C(CSc1n[nH]c(-c2ccccc2)n1)Nc1ncc(Br)cc1Br [Compound 40] | 1.41 µM | –
14 | CCNC(=S)NN=Cc1cccn1-c1ccccc1 [Compound 33] | – | qHTS IC50 [nM] [1, 5]: inactive
15 | CCCCc1ccc(NC(=O)C2=CN3CCS(=O)(=O)N=C3C=C2)cc1 [Compound 67] | 0.398 µM | –
16 | CCc1nc(N2CCN(C(=O)c3ccco3)CC2)c(C#N)c2c1COC(C)(C)C2 [Compound 70] | 3.16 µM | –
17 | O=C1Nc2ccc(I)cc2/C1=C/c1cc(Br)c(O)c(Br)c1 [GW5074, reference compound] | – | IC50 ([1]; control inhibitor, 16-point dilution series in duplicate on every qHTS plate, read-out: average IC50): 10.4 µM
18 | Cc1c(Cl)cccc1NC(=O)CNC(=O)c1cncn1-c1ccc(F)cc1 [Compound 38] | – | qHTS IC50 [nM] [1, 5]: Inactive
19 | CC(C)(C)c1ccc(C(=O)O/N=C(\N)c2ccc(Cl)cc2)cc1 [Compound 39] | – | qHTS IC50 [nM] [1, 5]: inactive
20 | CCCCC[C@H](O)/C=C/[C@H]1[C@H](O)CC(=O)[C@@H]1C/C=C\CCCC(=O)O [PGE2, 15-hydroxyprostaglandin type-E2, reference compound] | – | ΔTm in the presence of NAD+ [2]: 2.4 °C; ΔTm in the presence of NADH [2]: no stabilization; stabilization without cofactor ([2]; in words): failed to stabilize; catalytic efficiency, k cat/K m ([3]; PGE2, absence of inhibitor): 2.5·10^6; catalytic constant, k cat ([3]; oxidation of PGE2, absence of inhibitor): about 14 per second; Titration of PGE2 K m [3, 7]: 5.5 ± 0.6 µM; Titration of PGE2 V max[µmol/(min×mg)] [3, 7]: 28.1 µmol/min/mg; Titration of PGE2 k cat/K m[×10^6] [3, 7]: 2.5 ×10^6; Titration of PGE2 k cat[1/sec] [3, 7]: 13.6 ± 0.3 s⁻¹
21 | Cc1ccccc1OCc1nnc(SCC(N)=O)o1 [Compound 47] | 0.159 µM | –
22 | O=c1oc2c(O)c(O)cc3c(=O)oc4c(O)c(O)cc1c4c23 [Compound 86] | 0.045 µM | –
23 | O=C(NCCc1ccc(Cl)cc1)C1CCC(CNc2c(N3CCCCC3)c(=O)c2=O)CC1 (centres unmarked) [Compound 53] | 17.8 µM | –
24 | COc1ccc(NC(=O)c2sccc2S(=O)(=O)N2CCCCC2)c(OC)c1 [Compound 41] | 5.01 µM | –
25 | Fc1ccccc1-c1nnc(SCCc2ccncc2)n1C1CC1 [Compound 24] | – | qHTS IC50 [nM] [1, 5]: Inactive
26 | CC1CCN(C(=O)CCc2ccc(Oc3cc([N+](=O)[O-])cc([N+](=O)[O-])c3)cc2)CC1 [Compound 22] | 0.891 µM | –
27 | C=C[C@@]1(C)CCCC[C@H]1CC#CCCCC [Compound 15] | 0.063 µM | –
28 | Cc1ccc(CN(c2ccc(C(=O)N3CCc4ccccc4C3)cc2)S(C)(=O)=O)cc1 [Compound 26] | 11.2 µM | –
29 | COC(=O)CN(C)C(=O)c1cc(Cl)c(OCC(C)C)c(OC)c1 [Compound 21] | 0.398 µM | –
30 | O=C(COc1ccc(F)cc1Cl)Nc1cccc(C(=O)NC2CC2)c1 [Compound 63] | 0.447 µM | –

Second part, led by results:

Row | IC50 [1, 4] | Compound | further results
31 | 12.6 µM | Cc1ccc(-c2nc3c4cnn(-c5cccc(Cl)c5)c4ncn3n2)cc1 [Compound 25] | –
32 | 14.1 µM | O=C(O)c1ccc(Cl)c(Cl)c1Br [Compound 52] | –
33 | 1.58 µM | COc1ccc(/C=C2\SC(=O)N(CCNC(=O)c3ccc(Br)o3)C2=O)cc1OC [Compound 81] | –
34 | 0.708 µM | COc1ccc2ccccc2c1C=C1N=C(c2ccc(C)c(C)c2)OC1=O [Compound 19] | –
35 | 14.1 µM | Cc1ccc(NC(=O)COc2cccc(C=C(C#N)C(=O)Nc3cccc(Cl)c3C)c2)cc1C [Compound 77] | –
36 | 3.16 µM | CC1(C)Oc2c(N=C=O)ccc(Cl)c2C1=O [Compound 87] | –
37 | 1 µM | COc1ccc(C(=O)c2ccccc2O)c(O)c1 [Compound 85] | –
38 | 1 µM | Cc1ccc2nc(Cl)c(CO)cc2c1 [Compound 46] | –
39 | 6.31 µM | O=C(O)c1cccc(Oc2cc(Cl)cc(Cl)c2)c1 [Compound 51] | –
40 | 1.12 µM | CC1=NOC(=O)C1=Cc1ccc(-c2ccc(Cl)cc2)o1 [Compound 64] | –
41 | 0.562 µM | COc1ccc(OC)c(NC(=O)Cc2cc(Cl)ccc2OC)c1 [Compound 69] | –
42 | 3.98 µM | CCNC(=O)c1ccc(CSc2ccc(Cl)cc2)cc1 [Compound 74] | –
43 | 0.126 µM | FC(F)(F)c1ccc(-c2nnco2)cc1 [Compound 73] | –
44 | 0.447 µM | CC1=NOC(=O)C1=Cc1ccc(-c2cc(Cl)ccc2Cl)o1 [Compound 62] | –
45 | 0.398 µM | O=C(C=Cc1ccco1)Nc1cc(Cl)c(O)c(Cl)c1 [Compound 43] | –
